Tested on: 233499-124-R-J3-PDC complex spheroid viability
Test: Anticancer human tumor 233499-124-R-J3-PDC patient-derived colon adenocarcinoma cell line growth inhibition [CLK]
Conditions: for IC50: curve of first compound; for viability, T/C: stronger effect = lower value
Text: A high-throughput screen of multi-cell type tumor spheroids was designed to identify active combinations of […] and targeted small molecules. Complex spheroids include a stromal component modeled by human endothelial cells (HUVEC) and fibroblasts modeled by human mesenchymal stem cells (MSCs). The concentration ranges selected for each drug and investigational agent were based upon clinically achievable concentrations if the clinical Cmax of the agent was known.
Compounds. The drugs and investigational agents: cirtuvivint (SM08502; NSC835563), CC-671 (NSC850746), vemurafenib (NSC761431), tapotoclax (NSC804041), sotorasib (NSC818433), adagrasib (NSC831453), MRTX-1133 (NSC836407), BAY2416964 (NSC825713), copanlisib (NSC816437), inavolisib (NSC800729), abemaciclib (NSC768073), osimertinib (NSC779217), entinostat (NSC756642), eltanexor (KPT-8602, NSC794443), venetoclax (NSC766270), ceralasertib (NSC777638), bortezomib (NSC756655), olaparib (NSC753686), talazoparib (NSC767125), alisertib (NSC759677), peposertib (NSC802822), gemcitabine (NSC613327), 5-fluorouracil (NSC19893), SN-38 (NSC673596), oxaliplatin (NSC266046), paclitaxel (NSC125973), and doxorubicin (NSC123127), were obtained from the National Cancer Institute (NCI) Developmental Therapeutics Program Chemical Repository. The FDA-approved anticancer drug set is available from the Developmental Therapeutics Program at https://dtp.cancer.gov/organization/dscb/obtaining/available plates.htm. […] The stock solutions were prepared in dimethyl sulfoxide (DMSO, Sigma-Aldrich, St. Louis, MO, cat. D2650), except for the platinum complexes which were prepared in saline (Quality Biological, Gaithersburg, MD, cat. 114-055-101), at 800-fold the tested concentration and stored at -70 degrees C prior to their use. All drugs and investigational agents were tested over a range starting from a high concentration at or near the clinical Cmax and decreasing in half-log increments. If the clinical Cmax for an agent had not been determined, the highest concentration tested was 10 microM.
Cell Culture. All cells were maintained in an incubator at 37 degrees C and 5% CO2 with 95% humidity. The PDC lines were cultured according to standard operating procedures established by the NCI PDMR. Briefly, all PDCs were thawed and cultured in Matrigel-coated flasks prepared with a working solution of 1X Ham's F-12 nutrient mix, without supplementation (Invitrogen, Waltham, MA, cat. 11765054), 100 U/mL penicillin-streptomycin (Invitrogen, cat. 15140122), and 2.5% Matrigel (Corning Inc., Corning, NY, cat. 354248) for the first three passages. The 947758-054-R-J2-PDC line was cultured in 6B/Colon 1A media, which includes advanced DMEM/F-12 (Thermo Fisher Scientific, cat. 12634028), 10 mM HEPES (Thermo Fisher Scientific, cat. 15630080), 1X GlutaMAX supplement (Thermo Fisher Scientific, cat. 35050061), 0.1 mg/mL primocin (InvivoGen, cat. ant-pm-2), 10% defined fetal bovine serum, heat inactivated (HyClone Laboratories Inc., cat. SH30070.03HI), 1.25 mM N-Acetyl-L-cysteine (Sigma-Aldrich, cat. A9165), 10 mM nicotinamide (Sigma-Aldrich, cat. N0636), 1X B-27 supplement (Thermo Fisher Scientific, cat. 17504044), 1X N-2 supplement (Thermo Fisher Scientific, cat. 17502048), and 10 microM Y-27632 dihydrochloride (Tocris Bioscience, cat. 1254). The 876862-298-R-J1-PDC was cultured in 6E media, which includes all 6B/Colon 1A media components plus 50% L-WRN conditioned media (ATCC, cat. CRL-3276), 50 ng/mL recombinant human EGF recombinant protein (hEGF; Thermo Fisher Scientific, cat. PHG0311), 10 ng/mL recombinant human fibroblast growth factor 10 (hGFG-10; PeproTech, cat. 100-26), 1 ng/mL recombinant human fibroblast growth factor 2 (hFGF-2; PeproTech, cat. 100-18B), and 1 µM prostaglandin E2 (PGE2; Tocris, cat. 2296). The 227483-062-R1-J1-PDC line was cultured in Panc media, containing all 6E components except hFGF-2, with the addition of 500 nM SB-431542 (Selleckchem, cat. S1067) and 10 nM gastrin (Tocris, cat. 3006). […]

[1] = second compound 0.0316 µM, first compound 0.0316 µM
[2] = second compound 0.0316 µM, first compound 0.1 µM
[3] = second compound 0.0316 µM, first compound 0.316 µM
[4] = second compound 0.0316 µM, first compound 1 µM
[5] = second compound 0.0316 µM, first compound 3.16 µM
[6] = second compound 0.0316 µM, first compound 10 µM
[7] = second compound 0.1 µM, first compound 0.0316 µM
[8] = second compound 0.1 µM, first compound 0.1 µM
[9] = second compound 0.1 µM, first compound 0.316 µM
[10] = second compound 0.1 µM, first compound 1 µM
[11] = second compound 0.1 µM, first compound 3.16 µM
[12] = second compound 0.1 µM, first compound 10 µM
[13] = second compound 0.316 µM, first compound 0.0316 µM
[14] = second compound 0.316 µM, first compound 0.1 µM
[15] = second compound 0.316 µM, first compound 0.316 µM
[16] = second compound 0.316 µM, first compound 1 µM
[17] = second compound 0.316 µM, first compound 3.16 µM
[18] = second compound 0.316 µM, first compound 10 µM
[19] = second compound 1 µM, first compound 0.0316 µM
[20] = second compound 1 µM, first compound 0.1 µM
[21] = second compound 1 µM, first compound 0.316 µM
[22] = second compound 1 µM, first compound 1 µM
[23] = second compound 1 µM, first compound 3.16 µM
[24] = second compound 1 µM, first compound 10 µM
[25] = second compound 3.16 µM, first compound 0.0316 µM
[26] = second compound 3.16 µM, first compound 0.1 µM
[27] = second compound 3.16 µM, first compound 0.316 µM
[28] = second compound 3.16 µM, first compound 1 µM
[29] = second compound 3.16 µM, first compound 3.16 µM
[30] = second compound 3.16 µM, first compound 10 µM
[31] = second compound 10 µM, first compound 0.0316 µM
[32] = second compound 10 µM, first compound 0.1 µM
[33] = second compound 10 µM, first compound 0.316 µM
[34] = second compound 10 µM, first compound 1 µM
[35] = second compound 10 µM, first compound 3.16 µM
[36] = second compound 10 µM, first compound 10 µM
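Note: spheroids exposed to the drug combinations for seven days.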
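Throughout, for viability, T/C: percent viability relative to DMSO vehicle control wells taken as 100%.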

Structure (SMILES): COc1cccc2c1C(=O)c1c(O)c3c(c(O)c1C2=O)CC(O)(C(=O)CO)CC3OC1CC(N)C(O)C(C)O1 (centres undefined) + CN1CCN(c2cc(C(=O)Nc3cc4cc(-c5cnn(C)c5)ccc4cn3)ccn2)CC1
- IC50 (second compound 0.0316 µM): 2550 nM
- IC50 (second compound 0.1 µM): 1780 nM
- IC50 (second compound 0.316 µM): 1940 nM
- IC50 (second compound 1 µM): < 31.6 nM
- IC50 (second compound 3.16 µM): < 31.6 nM
- IC50 (second compound 10 µM): < 31.6 nM
- viability, T/C [1]: 80.4%
- viability, T/C [2]: 110%
- viability, T/C [3]: 106%
- viability, T/C [4]: 80.9%
- viability, T/C [5]: 43.2%
- viability, T/C [6]: 10.8%
- viability, T/C [7]: 98%
- viability, T/C [8]: 110%
- viability, T/C [9]: 100%
- viability, T/C [10]: 68.5%
- viability, T/C [11]: 30.7%
- viability, T/C [12]: 5.13%
- viability, T/C [13]: 84.7%
- viability, T/C [14]: 97.6%
- viability, T/C [15]: 66.5%
- viability, T/C [16]: 61.9%
- viability, T/C [17]: 44.4%
- viability, T/C [18]: 2.79%
- viability, T/C [19]: 0.46%
- viability, T/C [20]: 0.59%
- viability, T/C [21]: 10.8%
- viability, T/C [22]: 0.33%
- viability, T/C [23]: 5.03%
- viability, T/C [24]: 0.81%
- viability, T/C [25]: 0.55%
- viability, T/C [26]: 0.57%
- viability, T/C [27]: 0.48%
- viability, T/C [28]: 0.43%
- viability, T/C [29]: 0.53%
- viability, T/C [30]: 0.67%
- viability, T/C [31]: 0.35%
- viability, T/C [32]: 0.39%
- viability, T/C [33]: 0.38%
- viability, T/C [34]: 0.34%
- viability, T/C [35]: 0.3%
- viability, T/C [36]: 0.24%

Structure (SMILES): CC(CO)NC(=O)c1cc(-c2ccc(Cl)cc2)nn(-c2cnn(C)c2)c1=O (centres undefined) + CNC(=O)c1ccc(Nc2nc(OC3CCCC3)c3c(-c4ccc5nc(C)oc5c4)c[nH]c3n2)c(OC)c1
- IC50 (second compound 0.0316 µM): > 10000 nM
- IC50 (second compound 0.1 µM): > 10000 nM
- IC50 (second compound 0.316 µM): > 10000 nM
- IC50 (second compound 1 µM): > 10000 nM
- IC50 (second compound 3.16 µM): > 10000 nM
- IC50 (second compound 10 µM): > 10000 nM
- viability, T/C [1]: 94.6%
- viability, T/C [2]: 98.2%
- viability, T/C [3]: 90.1%
- viability, T/C [4]: 94.6%
- viability, T/C [5]: 94%
- viability, T/C [6]: 88.9%
- viability, T/C [7]: 83.5%
- viability, T/C [8]: 84.7%
- viability, T/C [9]: 71.9%
- viability, T/C [10]: 80.6%
- viability, T/C [11]: 87.8%
- viability, T/C [12]: 61.9%
- viability, T/C [13]: 91.4%
- viability, T/C [14]: 64.6%
- viability, T/C [15]: 88.5%
- viability, T/C [16]: 83.9%
- viability, T/C [17]: 83.5%
- viability, T/C [18]: 66.6%
- viability, T/C [19]: 84.3%
- viability, T/C [20]: 85%
- viability, T/C [21]: 86.5%
- viability, T/C [22]: 86.7%
- viability, T/C [23]: 81.9%
- viability, T/C [24]: 79.2%
- viability, T/C [25]: 84.6%
- viability, T/C [26]: 59.3%
- viability, T/C [27]: 62.4%
- viability, T/C [28]: 83.3%
- viability, T/C [29]: 83.7%
- viability, T/C [30]: 70.8%
- viability, T/C [31]: 68.6%
- viability, T/C [32]: 73.9%
- viability, T/C [33]: 69.8%
- viability, T/C [34]: 72.2%
- viability, T/C [35]: 69.7%
- viability, T/C [36]: 64.2%

From PubChem BioAssay AID2060613 (Molecular Pharmacology Branch, DTP, NCI, 2025)
